According to patent US20250099433A1, “COMPOSITION AND METHOD FOR TREATMENT OF GRAM NEGATIVE BACTERIAL INFECTION” (The Research Foundation for the State University of New York, priority 2021, published 2025):
≈ marks a conversion by molar mass, not a printed value. Where “and” joins values, the source holds several entries; their conditions need not be identical. Identical values can stand only once. Entries after “also recorded” stand apart in the source; their conditions may differ. Like-named read-outs stand apart in the source and are kept apart here.

Key:
[1] = tested on: E. coli strain (K-12, MG1655); test: MIC by microbroth dilution, wild-type E. coli; type: cell-based, Escherichia coli; conditions: wild-type E. coli K-12 MG1655
[2] = tested on: FabZ*, hyperactive FabZ strain (L85P); test: microbe, parasite or virus in culture; type: cell-based, Escherichia coli; conditions: for MIC: Escherichia coli, read-out: MIC (μM) FabZ*
[3] = tested on: wild-type E. coli (K-12 MG1655); test: Post-antibiotic effect (PAE) in wild-type E. coli; type: cell-based, Escherichia coli; conditions: for PAE (h) 4x, Wild-type: 4xMIC for 1 h; for PAE (h) 4x, Wild-type / PAE (h) 16x, Wild-type: 1:1000 dilution; for PAE (h) 16x, Wild-type: 16xMIC for 1 h; for PAE in wild-type E. coli: MIC multiple not stated or 4x and 16xMIC
Excerpt: FIG. 4. Post-antibiotic effect of the ecLpxC inhibitors on wild-type and FabZ* E. coli. […] PAE data for wild-type E. coli are in panels (a) PT805, (c) PT810 and (e) CHIR-090, and for FabZ* E. coli in (b) PT805, (d) PT810 and (f) CHIR-090.
PAE data for wild-type E. coli are in panels (a) PT805, (c) PT810 and (e) CHIR-090, and for FabZ* E. coli in (b) PT805, (d) PT810 and (f) CHIR-090.

[4] = tested on: FabZ* E. coli; type: cell-based, Escherichia coli; conditions: for PAE (h) 4x, FabZ*: 4xMIC for 1 h; for PAE (h) 4x, FabZ* / PAE (h) 16x, FabZ*: 1:1000 dilution; for PAE (h) 16x, FabZ*: 16xMIC for 1 h; for PAE in FabZ* E. coli: MIC multiple not stated or 1x-16xMIC
Excerpt: FIG. 4. Post-antibiotic effect of the ecLpxC inhibitors on wild-type and FabZ* E. coli.
This included use of an E. coli strain (FabZ*) containing a hyperactive mutant of the fatty acid biosynthesis O-hydroxyacyl-ACP enzyme (FabZ), and determination of PAEs for wild-type E. coli in the presence of sub-MIC concentrations of macrolides.

[5] = tested on: wild-type E. coli (K12 MG1655); test: PAE in wild-type E. coli in the presence of sub-MIC azithromycin; type: cell-based, Escherichia coli; conditions: 16xMIC, 37° C.
Excerpt: FIG. 6. Post-antibiotic effect in the presence of sub-MIC azithromycin.
The PAE measurements were repeated for wild-type E. coli in the presence of sub-MIC levels of the protein synthesis inhibitor azithromycin.

[6] = tested on: wild-type E. coli; test: MIC of azithromycin after pre-exposure of wild-type E. coli to 16xMIC inhibitor; type: cell-based, Escherichia coli; conditions: for MIC: Escherichia coli
[7] = tested on: P. aeruginosa PAO1; test: Time-kill assays in P. aeruginosa PAO1; conditions: PAO1, 4x, 8x and 16xMIC, CAMH media, 37° C.
Experimental: Time-kill assays. […] The experimental data points are the mean values from triplicate, independent measurements, and the error bars represent the standard deviation from the mean.
Time-Kill Assays. […] Cultures were shaken at 37° C. for 6 h, and 100 μL aliquots were taken at each 1 h time interval and plated in serial dilutions in a Mueller-Hinton agar plate.

[8] = tested on: P. aeruginosa PAO1; test: MIC by microbroth dilution, P. aeruginosa PAO1; conditions: Pseudomonas aeruginosa, PAO1, read-out: MIC (μM) (PAO1)
[9] = tested on: P. aeruginosa PAO1; test: Post-antibiotic effect (PAE) in P. aeruginosa PAO1; conditions: 37° C.
Experimental: Post-antibiotic effect of the paLpxC inhibitors on wild-type P. aeruginosa. […] The experimental data points are the mean values from triplicate, independent measurements, and the error bars represent the standard deviation from the mean.
After incubating the plates overnight at 37° C., CFUs were enumerated, and the PAE values were calculated using a standard method where the time for the bacteria to recover 1 log post drug washout compared to the control was determined (FIG. 17, Table 6).
Post-antibiotic Effect (PAE). PAEs were determined using P. aeruginosa PAO1. […] The compound was washed out by diluting the culture 1000-fold into fresh CAMH-II medium, and the regrowth of bacteria was monitored by taking 100 μL aliquots each hour and plating serial dilutions on Muller-Hinton agar plates.

[10] = tested on: efflux-pump mutant strain (ΔMexABCDXY) (paEP); test: MIC by microbroth dilution, efflux-pump mutant P. aeruginosa; conditions: Pseudomonas aeruginosa, read-out: MIC (μM) (paEP)
Excerpt: Bacterial Strains. […] The efflux-pump deficient P. aeruginosa strain (ΔMexABCDXY), N150, was derived from PAO1.
Minimum Inhibitory Concentration (MIC) Measurements.

Row | Structure (SMILES) | PAE (h) 4x, Wild-type [3] [h] | PAE (h) 16x, Wild-type [3] [h] | PAE in wild-type E. coli [3] | PAE (h) 4x, FabZ* [4] [h] | PAE (h) 16x, FabZ* [4] [h] | PAE in FabZ* E. coli [4] | MIC ([1]; Escherichia coli) [µM] | MIC [2] [µM] | other results
1 | Cn1nnnc1SCC1=C(C(=O)O)N2C(=O)[C@@H](NC(=O)[C@H](O)c3ccccc3)[C@H]2SC1 [Cefamandole] | 0 | 0 | failed to generate a PAE; also recorded: neither cefamandole nor trimethoprim showed a PAE | 0 | 0 | failed to generate a PAE; also recorded: neither cefamandole nor trimethoprim showed a PAE | – | – | MIC [1]: 6.25 µM (≈ 2.89 µg/mL); MIC (μM) FabZ* ([2]; hyperactive FabZ strain (L85P)): 1.6 µM (≈ 0.74 µg/mL); PAE (h) (sub-MIC AZ) 16x(0.2) ([5]; then media with 0.2xMIC azithromycin): 0 h; PAE (h) (sub-MIC AZ) 16x(0.4) ([5]; then media with 0.4xMIC azithromycin): 0 h
2 | CC[C@H]1OC(=O)[C@H](C)[C@@H](O[C@H]2C[C@@](C)(OC)[C@@H](O)[C@H](C)O2)[C@H](C)[C@@H](O[C@@H]2O[C@H](C)C[C@H](N(C)C)[C@H]2O)[C@](C)(O)C[C@@H](C)C(=O)[C@H](C)[C@@H](O)[C@]1(C)O [Erythromycin] | 0.7 ± 0.1 | 1.4 ± 0.4 | 0.8 ± 0.05 h and 0.7 to 1.4 h | 0.8 ± 0.2 | 1.5 ± 0.4 | 0.8 ± 0.05 h and 0.7 to 1.4 h | 50 (≈ 36.7 µg/mL) | 6.25 (≈ 4.59 µg/mL) | –
3 | CC[C@H]1OC(=O)[C@H](C)[C@@H](O[C@H]2C[C@@](C)(OC)[C@@H](O)[C@H](C)O2)[C@H](C)[C@@H](O[C@@H]2O[C@H](C)C[C@H](N(C)C)[C@H]2O)[C@](C)(O)C[C@@H](C)CN(C)[C@H](C)[C@@H](O)[C@]1(C)O [azithromycin] | – | – | – | – | – | – | – | – | MIC ([6]; bacteria pre-exposed to 16xMIC ecLpxC inhibitor, read-out: MIC of azithromycin after pre-exposure to ecLpxC inhibitor): 3.25 µM; MIC ([6]; no pre-exposure, read-out: MIC of azithromycin, control): 12 µM; MIC of azithromycin after pre-exposure to cefamandole ([6]; bacteria pre-exposed to 16x cefamandole): 6.2 µM; fold decrease of azithromycin MIC after ecLpxC inhibitors ([6]; pre-treatment with 16xMIC ecLpxC inhibitors): 4 fold; fold decrease of azithromycin MIC after cefamandole ([6]; pre-treatment with cefamandole): 2 fold
4 | CC(CCn1ccc(-c2ccccc2)cc1=O)(C(=O)NO)S(C)(=O)=O (racemic) [PT901, N-hydroxy-2-methyl-2-(methylsulfonyl)-4-(2-oxo-4-phenylpyridin-1(2H)-yl)butanamide] | – | – | – | – | – | – | – | – | reduction of the starting log CFU/mL of the bacterial culture [7]: more than 3 logs; MIC [8]: 3.12 µM (≈ 1.14 µg/mL); PAE (h) 4x ([9]; PAO1, 4xMIC for 1 h): 0.7 h and 0.7 ± 0.1 h; PAE (h) 8x ([9]; PAO1, 8xMIC for 1 h): 1.1 ± 0.1 h; PAE (h) 16x ([9]; PAO1, 16xMIC for 1 h): 1.3 ± 0.1 h; MIC [10]: 0.2 µM (≈ 0.0729 µg/mL)
5 | COc1cc(Cc2cnc(N)nc2N)cc(OC)c1OC [Trimethoprim] | 0 | 0 | failed to generate a PAE; also recorded: neither cefamandole nor trimethoprim showed a PAE | 0 | 0 | failed to generate a PAE; also recorded: neither cefamandole nor trimethoprim showed a PAE | 2.5 (≈ 0.726 µg/mL) | 2.5 (≈ 0.726 µg/mL) | –
